Reference: patent publication US20100003191A1, “AURONE DERIVATIVE-CONTAINING COMPOSITION FOR DIAGNOSIS” (NAGASAKI UNIVERSITY, priority 2006, published 2010)

Key:
[1] = molecular target: T1, Aβ(1-42) aggregate (Homo sapiens, UniProt P05067); assay: In vitro binding experiment of [125I]-labeled aurone derivatives using Aβ(1-42) aggregates; settings: [125I]-labeled compounds, Ab(1-42) aggregates; for intensity of the binding property to Ab aggregates (order): radioactivity remaining on filter, FIG. 4
T1 construct: Amyloid (3 protein (Human, 1-42) [TFA form] was purchased from Peptide Institute, Inc); purchased Peptide Institute, Inc
Description: Aβ aggregates were prepared by dissolving in a buffer containing 10 mM sodium phosphate and 1 mM EDTA (pH 7.4) at a concentration of 0.5 mg/mL and incubating at 37° C. for 42 h. The binding experiment was performed using 12×75 mm borosilicate glass tubes. [^125I]IMPY used for comparison was prepared according to the method described previously (Zhuang Z P, Kung M P, Wilson A, Lee C W, Plossi K, Hou C, Holzman D M, Kung H F. Structure-activity relationship of imidazo[1,2-a]pyridines as ligands for detecting β-amyloid plaques in the brain. J. Med. Chem. 2003, 46(2): 237-43). 900 μL of 10% ethanol solution, 50 μL of [^125I]-labeled aurone derivative with various concentrations (in 10% aqueous ethanol) or 50 μL of [^125I]IMPY, and 50 μL (29 nM) of an Aβ(1-42) aggregate solution were mixed, and the mixture was allowed to stand at room temperature for 3 h. Aβ3 aggregate-bound aurone derivative and nonbound aurone derivative were separated with a Brandel M-24R cell harvester using Whatman GF/B filters. The radioactivities of substances remaining on the filter used for filtration were measured with a γ counter.
FIGS. 4 and 5 show the results of experiments in which aurone derivatives were reacted in the presence and absence of Ab aggregates; the reaction mixture was filtered with a cell harvester; and the remaining radioactivity on the filter was measured. […] The intensity of the binding property increased in the following order: [^125I] Compound 7>[^125I] Compound 12=[^125I] IMPY>[^125I] Compound 14=[^125I] Compound 17>[^125I] Compound 20 (FIG. 4). The binding property to Ab aggregates of those compounds with —NH2, OMe- and OH group in their side chains are lower than the binding property of [^125] IMPY. On the other hand, those compounds with NHMe- and NMe2 group show equal or higher binding property to Ab aggregates compared to the binding property of [^125I] IMPY. […] Among all, the binding of Compound 7 to Ab aggregates was equal or more than the binding of [^125I] IMPY which is clinically tested at present. Therefore, it has become clear that this compound satisfies a critical requirement as an imaging probe for amyloid β.

[2] = In vivo radioactivity distribution experiment of 125I-labeled aurone derivatives in normal mice (Example 2, Table 15); settings: tail vein
[3] = molecular target: T2, Ab(1-42) aggregates (Homo sapiens, UniProt P05067); assay: Binding inhibition experiment using Ab(1-42) aggregates, inhibition constants (Ki), radioligand [125I](Z)-2-(4-aminobenzylidene)-5-iodobenzofuran-3(2H)-one (Table 14); settings: Aβ42 aggregates
T2 construct: Ab(1-42) was dissolved in 10 mM phosphate buffer containing 1 mM EDTA (pH 7.4)
Description: Ab(1-42) was dissolved in 10 mM phosphate buffer containing 1 mM EDTA (pH 7.4) to give a concentration of 0.25 mg/mL, and the mixture was incubated at 37° C. for 42 h to thereby prepare Ab(1-42) aggregates.
[…] of 10% EtOH solution, […] of a solution of [^125I](Z)-2-(4-aminobenzylidene)-5-iodobenzofuran-3(2H)-one in 10% ethanol, and […] of a sample solution at various concentrations ([…]) were mixed. Finally, […] of Ab(1-42) aggregate solution was added thereto, and the mixture was allowed to stand at room temperature for 3 h. Ab(1-42) aggregate-bound compounds and nonbound compounds were separated with a Brandel M-24R cell harvester using a Whatman GF/B filter. Radioactivities remaining on the filter were measured with a γ-counter, and inhibition curves were created using Graph Pad Prism 4.0 to calculate inhibition constants (Ki values).
In order to calculate inhibition constants (Ki values) for various aurone derivatives synthesized, binding inhibition experiments were performed using [^125I](Z)-2-(4-aminobenzylidene)-5-iodobenzofuran-3(2H)-one as a radioactive ligand. […] Thus, aurone derivatives have shown a high binding property to amyloid aggregates. No difference in binding property resulting from the length of introduced ethyleneoxy chains was observed.

[4] = male, ddY, mouse, in vivo, 2 min
[5] = In vivo radioactivity biodistribution experiment in normal mice (Example 1, Table 13); parameters: species or system ddY mice
Description: ^125I-labeled compounds were diluted with 10% ethanol-containing physiological saline. […] After their blood was collected, organs were removed, and the weights and radioactivities thereof were measured.
When any of the aurone derivatives was used, sufficient radioactivity to perform imaging of intracerebral amyloid migrated to the brain from the early stage of injection (1.7-4.6% ID/g). […] It was also shown that, in any of the aurone derivatives, in vivo radioactivity behavior is discharged mainly from the liver to the bile duct and the intestinal tract.

T1 sequence (P05067 672-713 limits assumed): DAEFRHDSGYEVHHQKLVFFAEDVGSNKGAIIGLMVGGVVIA
T2 sequence (P05067 672-713 limits assumed): as above

## Nc1ccc(/C=C2\Oc3ccc(I)cc3C2=O)cc1 [Compound 14, 5-iodo-4′-aminoauron]
[1]
  intensity of the binding property to Ab aggregates (order): [^125I] Compound 14=[^125I] Compound 17

## CN(C)c1ccc(-c2cn3cc([125I])ccc3n2)cc1 [[^125I] IMPY, reference compound]
[1]
  intensity of the binding property to Ab aggregates (order): [^125I] IMPY>[^125I] Compound 14

## O=C1/C(=C/c2ccc(OCCO)cc2)Oc2ccc([125I])cc21 [[125I]26]
[2]; 2 min after injection
  Radioactivity distribution, Blood, Mean: 4.97 % ID/g
  Radioactivity distribution, Brain, Mean: 4.51 % ID/g
[2]; 10 min after injection
  Radioactivity distribution, Blood, Mean: 3.88 % ID/g
  Radioactivity distribution, Brain, Mean: 1.49 % ID/g
[2]; 30 min after injection
  Radioactivity distribution, Blood, Mean: 2.38 % ID/g
  Radioactivity distribution, Brain, Mean: 0.24 % ID/g
[2]; 60 min after injection
  Radioactivity distribution, Blood, Mean: 1.24 % ID/g
  Radioactivity distribution, Brain, Mean: 0.09 % ID/g

## O=C1/C(=C/c2ccc(OCCOCCO)cc2)Oc2ccc(I)cc21 [Compound 27, (Z)-2-(4-(2-(2-hydroxyethoxy)ethoxy)benzylidene)-5-iodobenzofuran-3(2H)-one]
[3]
  Ki: 3.36 ± 0.29 nM
[4]
  migration of radioactivity to the brain: 2.4-4.5 % ID/g

## CNc1ccc(/C=C2\Oc3ccc(I)cc3C2=O)cc1 [Compound 12, 5-iodo-4′-methylaminoaurone]
[1]
  intensity of the binding property to Ab aggregates (order): [^125I] Compound 12=[^125I] IMPY

## CN(C)c1ccc(/C=C2\Oc3ccc(I)cc3C2=O)cc1 [Compound 7, 5-iodo-4′-dimethylaminoaurone]
[1]
  binding property to Ab aggregates compared with [125I]IMPY: equal or more than the binding of [^125I] IMPY
  intensity of the binding property to Ab aggregates (order): [^125I] Compound 7>[^125I] Compound 12

## O=C1/C(=C/c2ccc(OCCOCCO)cc2)Oc2ccc([125I])cc21 [[125I]27]
[2]; 2 min after injection
  Radioactivity distribution, Blood, Mean: 3.61 % ID/g
  Radioactivity distribution, Brain, Mean: 3.69 % ID/g
[2]; 10 min after injection
  Radioactivity distribution, Blood, Mean: 5.18 % ID/g
  Radioactivity distribution, Brain, Mean: 1.53 % ID/g
[2]; 30 min after injection
  Radioactivity distribution, Blood, Mean: 1.11 % ID/g
  Radioactivity distribution, Brain, Mean: 0.38 % ID/g
[2]; 60 min after injection
  Radioactivity distribution, Blood, Mean: 0.68 % ID/g
  Radioactivity distribution, Brain, Mean: 0.16 % ID/g

## CNc1ccc(/C=C2\Oc3ccc([125I])cc3C2=O)cc1 [[^125I]12]
[5]; 2 min after injection
  Biodistribution of radioactivity, Blood: 4.16 (0.98) % injected dose per gram
  Biodistribution of radioactivity, Brain: 3.17 (0.45) % injected dose per gram
  Biodistribution of radioactivity, Heart: 5.07 (0.47) % injected dose per gram
  Biodistribution of radioactivity, Intestine: 3.06 (1.11) % injected dose per gram
  Biodistribution of radioactivity, Kidney: 9.91 (2.00) % injected dose per gram
  Biodistribution of radioactivity, Liver: 11.26 (2.81) % injected dose per gram
  Biodistribution of radioactivity, Lung: 6.86 (0.65) % injected dose per gram
  Biodistribution of radioactivity, Pancreas: 4.83 (0.60) % injected dose per gram
  Biodistribution of radioactivity, Spleen: 2.37 (0.41) % injected dose per gram
  Biodistribution of radioactivity, Stomach: 1.30 (0.43) % injected dose per organ
[5]; 10 min after injection
  Biodistribution of radioactivity, Blood: 2.72 (1.01) % injected dose per gram
  Biodistribution of radioactivity, Brain: 1.22 (0.09) % injected dose per gram
  Biodistribution of radioactivity, Heart: 2.17 (0.34) % injected dose per gram
  Biodistribution of radioactivity, Intestine: 6.59 (3.43) % injected dose per gram
  Biodistribution of radioactivity, Kidney: 11.44 (2.76) % injected dose per gram
  Biodistribution of radioactivity, Liver: 9.70 (2.78) % injected dose per gram
  Biodistribution of radioactivity, Lung: 4.44 (0.39) % injected dose per gram
  Biodistribution of radioactivity, Pancreas: 1.81 (0.15) % injected dose per gram
  Biodistribution of radioactivity, Spleen: 1.28 (0.19) % injected dose per gram
  Biodistribution of radioactivity, Stomach: 2.53 (0.97) % injected dose per organ
[5]; 30 min after injection
  Biodistribution of radioactivity, Blood: 2.84 (1.48) % injected dose per gram
  Biodistribution of radioactivity, Brain: 0.32 (0.02) % injected dose per gram
  Biodistribution of radioactivity, Heart: 0.98 (0.21) % injected dose per gram
  Biodistribution of radioactivity, Intestine: 10.34 (4.91) % injected dose per gram
  Biodistribution of radioactivity, Kidney: 6.00 (2.14) % injected dose per gram
  Biodistribution of radioactivity, Liver: 6.11 (2.16) % injected dose per gram
  Biodistribution of radioactivity, Lung: 2.41 (0.66) % injected dose per gram
  Biodistribution of radioactivity, Pancreas: 0.83 (0.10) % injected dose per gram
  Biodistribution of radioactivity, Spleen: 0.86 (0.14) % injected dose per gram
  Biodistribution of radioactivity, Stomach: 2.82 (1.88) % injected dose per organ
[5]; 60 min after injection
  Biodistribution of radioactivity, Blood: 2.41 (0.70) % injected dose per gram
  Biodistribution of radioactivity, Brain: 0.24 (0.05) % injected dose per gram
  Biodistribution of radioactivity, Heart: 0.84 (0.37) % injected dose per gram
  Biodistribution of radioactivity, Intestine: 14.04 (2.87) % injected dose per gram
  Biodistribution of radioactivity, Kidney: 3.52 (0.77) % injected dose per gram
  Biodistribution of radioactivity, Liver: 4.91 (0.72) % injected dose per gram
  Biodistribution of radioactivity, Lung: 2.94 (0.62) % injected dose per gram
  Biodistribution of radioactivity, Pancreas: 0.77 (0.28) % injected dose per gram
  Biodistribution of radioactivity, Spleen: 0.75 (0.17) % injected dose per gram
  Biodistribution of radioactivity, Stomach: 2.26 (0.88) % injected dose per organ

## O=C1/C(=C/c2ccc(OCCOCCOCCO)cc2)Oc2ccc([125I])cc21 [[125I]28]
[2]; 2 min after injection
  Radioactivity distribution, Blood, Mean: 4.75 % ID/g
  Radioactivity distribution, Brain, Mean: 2.81 % ID/g
[2]; 10 min after injection
  Radioactivity distribution, Blood, Mean: 2.70 % ID/g
  Radioactivity distribution, Brain, Mean: 0.84 % ID/g
[2]; 30 min after injection
  Radioactivity distribution, Blood, Mean: 1.13 % ID/g
  Radioactivity distribution, Brain, Mean: 0.18 % ID/g
[2]; 60 min after injection
  Radioactivity distribution, Blood, Mean: 0.55 % ID/g
  Radioactivity distribution, Brain, Mean: 0.08 % ID/g

## O=C1/C(=C/c2ccc(O)cc2)Oc2ccc(I)cc21 [Compound 20, 5-iodo-4′-hydroxyaurone]
[1]
  intensity of the binding property to Ab aggregates (order): >[^125I] Compound 20

## COc1ccc(/C=C2\Oc3ccc(I)cc3C2=O)cc1 [Compound 17, 5-iodo-4′-methoxyaurone]
[1]
  intensity of the binding property to Ab aggregates (order): [^125I] Compound 17>[^125I] Compound 20

## O=C1/C(=C/c2ccc(OCCOCCOCCO)cc2)Oc2ccc(I)cc21 [Compound 28, (Z)-2-(4-(2-(2-(2-hydroxyethoxy)ethoxy)ethoxy)benzylidene)-5-iodobenzofuran-3(2H)-one]
[3]
  Ki: 2.56 ± 0.31 nM
[4]
  migration of radioactivity to the brain: 2.4-4.5 % ID/g
